Assay results: patent publication US20110224300A1, “USE OF POTASSIUM 2-(a- HYDROXYPENTYL) BENZOATE IN THE MANUFACTURE OF MEDICAMENTS FOR PREVENTING AND/OR TREATING SENILE [sequence]” (Institute of Mataria Medica, Chinese Academy of Me, priority 2008, published 2011)

Assays:
MDA = MDA level of brain tissues from permanent 2-VO rats; type: in vivo, rat; conditions: for MDA level in cortex: 21 days
Experimental: (§1) In 10 days after onset of 2-VO, drugs and vehicle were administered orally to rats for 21 days (one time/each day). The spatial learning and memory capability of rats were detected by Morris water maze in the 25-30 days after operation. The Morris water test was commenced at 40 min after drugs treated. The biochemical and pathology assays were conducted later (in 24 h) after behavioral tests.
(§2) The biochemical assays were conducted later (in 24 h) after behavioral testing. Eight rats in each group were anesthetized with ether and sacrificed. The brains were quickly removed and cleaned with ice-cold saline. Then the parietal cortex and hippocampus were isolated. For biochemical analysis, the tissues were weighed and homogenized in ice-cold saline with the proportion of 1:9 (w/v). Homogenization (IKA, Germany) was carried out for 2 min in an ice bath. After the homogenates were centrifuged at 2,000×g for 10 min at 4° C. (Sigma, Germany), the supernatant was used for analytical procedures. The levels of choline acetyltransferase (ChAT) SOD, and MDA activities were determined with commercial colorimetric assay kits (Nanjing Jiancheng Bioengineering Institute, China). The content of protein in the supernatant was determined by Bradford method using BSA as standard.

SAMP8 mice [1] = assay: Step down test in SAMP8 mice; type: in vivo; conditions: for step-down latency time: vehicle 0.7±0.2, P<0.01
Experimental: (§3) SAMP8 were divided into three experimental groups randomly: one vehicle control group, and two dl-PHPB-treated groups (50, and 160 mg/kg). Drugs and vehicle were administered orally to SAMP8 mice for 35 days (one time/each day). The spatial learning and memory abilities of SAMP8 mice were detected by Morris water maze and DTT-2 jumping apparatus in 31-35 days. The testing was commenced at 40 min after drugs treated. The biochemical and pathology assays conducted later (in 24 h) after behavioral testing.
The step-down avoidance task was performed by using a behavior box (22 cm×15 cm×30 cm each). Each testing chamber has 3 Plexiglas black walls, a clear Plexiglas front wall, metal grid floors and an insulating platform (3 cm diameter, 4 cm height), which is located at one corner of the testing chamber. The metal grids are connected to the output terminals of an electrical stimulator. For the habituation session, each mouse was gently placed on the insulating platform and was allowed to explore in the testing chamber for 3 min before placing back on the platform again. Monophasic pulses (1 ms, 1 Hz, 36 VDC) were continuously delivered for 5 min during the training tria. If the mouse steps down from the platform onto the grid floor, the mouse will be subjected to receive an electric shock until returning to the platform. Then, 24 h after the training, the mice were placed on the platform for assessing their long term memory of retention period. The electric shocks were delivered for 5 min and the latency to step down on the grid with four paws for the first time (step-down latency) and the numbers of errors subjected to shocks within 5 min were recorded.

ChAT [2] = assay: ChAT activity of brain tissues from SAMP8 mice; type: in vivo
Experimental: as §2
as §3, with “testing. […]” for “testing.”

SAMP8 mice [3] = assay: Water maze test (blind sides) in SAMP8 mice; type: in vivo
Experimental: as §3
The water maze consisted of square black opaque plastic box (80 cm×50 cm×20 cm), of which four blind-side and a terminal stage. When a black plastic sheet (15 cm×20 cm) was placed in different locations, there were different the starting points and different number of blind side. The water maze filled with water at 25±1° C. to a depth 12 cm. Mice can be placed in different starting point, making experience with different number of blind side to the end. The number of errors into the blind side and the time to reach the end platform (escape latency) was recorded.
Each mouse was permitted to stay there for 5 s and place in the pool, allowed 3 min to find the end platform. The escape latency (time to reach the platform) was used to assess acquisition of the water maze task. Sessions was repeated for 4 consecutive days.

SOD = SOD activity of brain tissues from permanent 2-VO rats; type: in vivo, rat; conditions: for SOD activity in cortex: 21 days
Experimental: as §1, §2

ChAT [4] = assay: ChAT activity of brain tissues from permanent 2-VO rats; type: in vivo, rat; conditions: for activity of ChAT in hippocampus: 21 days
Experimental: as §1, §2

In the case of `CCCCC(O)c1ccccc1C(=O)[O-].[K+]` (racemic) [dl-PHPB, Potassium 2-(1-Hydroxypentyl)-benzoate], the “MDA level in cortex” value (MDA; dl-PHPB 13 mg/kg) is reported as “decreased MDA level”, the “MDA level in cortex” value (MDA; dl-PHPB 39 mg/kg) is reported as “decreased MDA level” and the “MDA level in cortex” value (MDA; dl-PHPB 129 mg/kg) is reported as “decreased MDA level”. For the same molecule, the “MDA level in hippocampus” value (MDA; hippocampus, doses not given) was “no significant effects”, the “numbers of errors subjected to shocks” value (SAMP8 mice [1]; 50 mg/kg oral, first day of training, vehicle 8.3±0.6, P<0.01) was 5.8±0.5 and the “numbers of errors subjected to shocks” value (SAMP8 mice [1]; 50 mg/kg oral, second day, vehicle 4.6±0.3, P<0.05) was 3.4±0.3. The step-down latency time (SAMP8 mice [1]; 50 mg/kg oral) was 5.5±0.8, the “numbers of errors subjected to shocks” value (SAMP8 mice [1]; 160 mg/kg oral, first day of training, vehicle 8.3±0.6, P<0.001) was 4.9±0.5 and the “numbers of errors subjected to shocks” value (SAMP8 mice [1]; 160 mg/kg oral, second day, vehicle 4.6±0.3, P<0.01) was 2.1±0.3. The step-down latency time (SAMP8 mice [1]; 160 mg/kg oral) was 10.2±2.4, the “ChAT activity in the hippocampus” value (ChAT [2]; 35 days, dose-dependent, P<0.05) was “significantly increased ChAT activity” and the “ChAT activity in the cortex” value (ChAT [2]; cortex, data not shown) was “did not significantly improve ChAT activity”. For the same molecule, the “number of errors into the blind-side” value (SAMP8 mice [3]; 50 mg/kg oral, fifth test, vehicle 6.1±1.1, P<0.05) was 3.1±0.9, the escape latency time (SAMP8 mice [3]; 50 mg/kg, last test, P<0.01 vs vehicle) was “significantly shorten the escape latency time” and the “number of errors into the blind-side” value (SAMP8 mice [3]; 160 mg/kg oral, fifth test, vehicle 6.1±1.1, P<0.05) was 2.7±0.3. The escape latency time (SAMP8 mice [3]; 160 mg/kg, fourth training, P<0.05) was “significantly shortened the escape latency time”, the escape latency time (SAMP8 mice [3]; 160 mg/kg, last test, P<0.01 vs vehicle) was “significantly shorten the escape latency time” and the escape latency time (SAMP8 mice [3]; first and second trainings, each group) was “no significant difference”. For the same molecule, the “number of errors into the blind-side” value (SAMP8 mice [3]; first three trainings, vs vehicle) was “no significant difference”, the “number of errors into the blind-side” value (SAMP8 mice [3]; fourth training, vs vehicle, dose not specified) was “significantly decreased the number of errors” and the escape latency time (SAMP8 mice [3]; third training) was “tendency of the shorter escape latency”. The “SOD activity in cortex” value (SOD; dl-PHPB 13 mg/kg) was “significantly alleviated the increase of SOD activity”, the “SOD activity in cortex” value (SOD; dl-PHPB 39 mg/kg) was “significantly alleviated the increase of SOD activity” and the “SOD activity in hippocampus” value (SOD; hippocampus, doses not given) was “no significant effects”. The “ChAT activity in cortex” value (ChAT [4]; cortex, data not shown) was “had no effect”, the “activity of ChAT in hippocampus” value (ChAT [4]; dl-PHPB 13 mg/kg) was “did not show significant effects” and the “activity of ChAT in hippocampus” value (ChAT [4]; dl-PHPB 39 mg/kg) was “did not show significant effects”. For the same molecule, the “activity of ChAT in hippocampus” value (ChAT [4]; dl-PHPB 129 mg/kg, P<0.05) was “significantly increased the activity of ChAT”.
